Results reported in article PMC6624297 (Cell Death & Disease, 2019).

What was measured:
A549 cells = assay: MTT assay A549; assay type: cell-based, human
Experimental: (§1) Details are given in Supplementary Materials and Methods. Using probability unit and weighted regression method to calculate the IC50 value of compounds.
(§2) Total cells in the logarithmic growth phase were collected, digested using 0.25% pancreatic enzymes, and then diluted into single-cell suspensions using phosphate-buffered solution (PBS). These cells were seeded into 96-well plates at 4× 10^3-5× 10^3 cells per well (100 µL per well) and then A549, H460, OVCAR-3, SGC7901, MDA-MB-231, HCT116 and HepG2 were cultured at 37°Cin an incubator containing 5% CO2. After cell complete attachment, 100 µL of different concentrations of compounds (0.625 μM, 1.25 μM, 2.5μM, 5 μM, 10 μM) were added to the cells after the nutrient solution in each well was discarded, while no compound except 0.1% DMSO was added to cells in the control group; at the same time, each concentration was set up to 5 wells. In addition, 5 wells in each 96-well plate only received 100 µL of nutrient solution as a blank control. The plates were taken out after the cells were incubated with compounds for 24 h, and 20 µL of MTT solution (5 mg/mL) (Wuhan Boster Biotechnology Limited Company, Wuhan, China; item No. AR1156) was added into all the wells. After another time of incubation for 4 h at 37 °C, the nutrient solution in each well was discarded slowly, and 150 µL of DMSO was added to each well. The plates were shaken on a shaking table for 20 min. When the crystals were fully dissolved, the blank wells were used to zero the plate reader. The optical density (OD) of each well was detected at 490 nm. The IC50 value was determined as the concentration of the inhibitor that caused 50% inhibition. Using probability unit and weighted regression method to calculate the IC50 value of compounds.

OVCAR-3 cells = assay: MTT assay OVCAR-3; assay type: cell-based; details: Homo sapiens, 24h of treatment, mean ± SD
Experimental: as §1, §2

SGC7901 cells = assay: MTT assay SGC7901; assay type: cell-based; details: Homo sapiens, SGC-7901, 24h of treatment, mean ± SD
Experimental: as §1, §2

HepG2 cells = assay: MTT assay HepG2; assay type: cell-based; details: Homo sapiens, 24h of treatment, mean ± SD
Experimental: as §1, §2

IOSE80 cell line = assay: Selectivity index against IOSE80; assay type: cell-based; details: SI = CC50/IC50
HTB-125 cell line = assay: Selectivity index against HTB-125; assay type: cell-based; details: SI = CC50/IC50
LO2 cell line = assay: Selectivity index against LO2; assay type: cell-based; details: SI = CC50/IC50
[1] = system: P53, caspase-3, bcl-2/bax, cleaved caspase-3; assay: Western blot apoptotic proteins, A549; assay type: cell-based, human; details: A549, 0.5, 1.0, 1.5 μM, 24 h
Experimental: (§3) A549 cells, H460 cells and HUVECs were treated with different concentrations of compound L14e for 24 h. Primary antibodies (100 μL/cm^2): P53(10442-1-AP, Proteintech Group),caspase-3 (19677-1-AP, Proteintech Group), bax (50599-2-lg, Proteintech Group), bcl-2 (12789-1-AP, Proteintech Group), cleaved caspase-3 (25546-1-AP, Proteintech Group), β-actin (60008-1-lg, Proteintech Group), EGFR (ab21074, Abcam), AKT (#2920, Cell Signaling Technology), ERK1/2 (#4370, Cell Signaling Technology), VEGFR-2 (#9698, Cell Signaling Technology), p-EGFR (ab40815, Abcam), p-AKT (#4060, Cell Signaling Technology), p-ERK1/2 (#4695, Cell Signaling Technology), p-VEGFR-2 (#3770, Cell Signaling Technology), and GAPDH (ab181603, Abcam). The cellular levels of proteins were determined by standard Western blotting. Details were given in Supplementary Materials and Methods.
(§4) A549 cells, H460 cells and HUVECs were treated with different concentrations of compound L14e for 24 h, and collected to establish their respective treatment groups. […]
(§5) Extracted proteins were separated from each other using polyacrylamide electrophoresis on a 10 % gel (Beyotime Biotechnology Company, Shanghai, China) and transferred to a polyvinylidene fluoride (PVDF) membrane. […] Gray values of protein bands were quantitatively analyzed, with the gray value of β-actin(GAPDH) band as the reference.

[2] = system: P53, caspase-3, bcl-2/bax, cleaved caspase-3; assay: Western blot apoptotic proteins, H460; assay type: cell-based, human; details: H460, 0.5, 1.0, 1.5 μM, 24 h
Experimental: as §3, §4, §5

p-EGFR, p-AKT, p-ERK1/2 [3] = assay: Western blot EGFR signaling pathway, A549; assay type: cell-based, human; details: A549, 0.5, 1.0, 1.5 μM, 24 h, EGF 50 ng/ml
Experimental: as §3, §4, §5

p-EGFR, p-AKT, p-ERK1/2 [4] = assay: Western blot EGFR signaling pathway, H460; assay type: cell-based, human; details: H460, 0.5, 1.0, 1.5 μM, 24 h, EGF 50 ng/ml
Experimental: as §3, §4, §5

## O=C(Nc1cccc(Cl)c1)Nc1ccccc1NS(=O)(=O)c1c[nH]c(=O)[nH]c1=O [Compound L14e, N'-(3-chlorophenyl)-2-(2,4-dihydroxypyrimidine-5-sulfonamido)phenyl urea]
A549 cells
  anti-proliferative potency relative to PTX, A549: nearly five times higher
A549 cells; Homo sapiens, A549, 24h of treatment, mean ± SD
  IC50: 670 ± 220 nM
OVCAR-3 cells
  IC50: 1680 ± 310 nM
SGC7901 cells
  IC50: 1950 ± 150 nM
HepG2 cells
  IC50: 1360 ± 130 nM
IOSE80 cell line
  SI (Selectivity index) IOSE80: 8.79
HTB-125 cell line
  SI (Selectivity index) HTB-125: 10.39
LO2 cell line
  SI (Selectivity index) LO2: 12.58
[1]
  expression of P53, bax, bcl-2, cleaved caspase-3: over expression of P53, up-regulation of bax and down-regulation of bcl-2
[2]
  expression of P53, bax, bcl-2, cleaved caspase-3: over expression of P53, up-regulation of bax and down-regulation of bcl-2
p-EGFR, p-AKT, p-ERK1/2 [3]
  expression of phosphorylated EGFR (Tyr1068) and AKT (Ser473): significantly reduced
p-EGFR, p-AKT, p-ERK1/2 [4]
  expression of phosphorylated EGFR (Tyr1068) and AKT (Ser473): significantly reduced
